# Source: patent US20090318376A1, “High Throughput Screening Method of Binding Inhibitor Between caspase3 and XIAP and Binding Inhibitor Screened Thereby” (Korea Research Institute of Bioscience and Biotechnology, priority 2006, published 2009)
# Legend:
# [1] = tested on: colorectal cancer cell line SW620; assay: inhibition of proliferation of cancer cell lines (WST-8); assay type: cell-based; conditions: Homo sapiens, SW-620, WST-8, over 24 hours treatment, read-out: IC 50 (proliferation)
# Protocol: (§1) To examine inhibition of proliferation of the cell lines, the cancer cell lines HCT 116 (Mecoy's 5A medium), SW620 (RPMI 1640) and MDA-MB-231 (RPMI 1640) were cultured to disperse in a 96 well plate. SW620 and HCT116 were innoculated at a concentration of 7,000 cells/100 μl, and MDA-MB-231 was innoculated at a concentration of 5,000 cells/100 μl, respectively, and cultured overnight, followed by an additional reaction of over 24 hours after treating with 1 μl chromomycin prepared according to the concentration. Next, the resulting cells were added with 10 μl of WST-8, counted with an ELISA reader at 450 nm after 2 hours and calculated as a percentage of comparative control added only with DMSO. Inhibitory concentration (IC50), with respect to proliferation of cell lines MDA-MB -231, HCT116, SW620, was measured within the concentration range from 0 to 1 µg/ml by dissolving chromomycin in DMSO (Table 1).
# [2] = tested on: breast cancer cell line MDA-MB-231; assay: as above; assay type: cell-based; conditions: Homo sapiens, WST-8, over 24 hours treatment, read-out: IC 50 (proliferation)
# Protocol: as §1
# [3] = tested on: colorectal cancer cell line HCT116; assay: as above; assay type: cell-based; conditions: Homo sapiens, HCT-116, WST-8, over 24 hours treatment, read-out: IC 50 (proliferation)
# Protocol: as §1
# [4] = molecular target: T1, binding between caspase3 and xIAP (Homo sapiens, UniProt P98170); assay: protein chip (CI-chip) SPR imaging screening of inhibitors of interaction between caspase3 and xIAP; conditions: within the range from 50 to 400 μM; FIG. 3
# T1 construct: made in house; host or cells: E. coli BL21
# T1 sequence (P98170 whole entry): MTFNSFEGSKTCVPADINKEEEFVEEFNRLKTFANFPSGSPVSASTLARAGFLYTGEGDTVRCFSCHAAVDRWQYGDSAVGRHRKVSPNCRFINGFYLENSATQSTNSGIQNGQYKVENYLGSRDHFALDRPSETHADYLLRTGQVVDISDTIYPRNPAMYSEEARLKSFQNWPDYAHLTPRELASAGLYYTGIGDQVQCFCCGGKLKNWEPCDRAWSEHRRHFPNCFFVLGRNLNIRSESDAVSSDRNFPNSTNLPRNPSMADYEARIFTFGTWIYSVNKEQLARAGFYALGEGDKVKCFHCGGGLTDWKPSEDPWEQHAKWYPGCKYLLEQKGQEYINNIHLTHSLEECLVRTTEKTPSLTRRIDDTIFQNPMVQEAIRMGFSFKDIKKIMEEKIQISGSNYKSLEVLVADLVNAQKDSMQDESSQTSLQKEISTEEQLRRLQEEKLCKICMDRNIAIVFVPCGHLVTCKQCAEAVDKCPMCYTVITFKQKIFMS
# Source text: Whether the obtained proteins bind to the gold chip having L-glutathione on the surface thereof, was pre-experimented. After a bacteria cell extract containing 20% glycerol, in which GST-tag-fused cas3 (29) obtained in Example 1-1 has been over-expressed, was dispersed in 384 microwell plate, it was spotted on the gold chip having L-glutathione on the surface thereof with a pin having a diameter of 335 μm under a constant humidity of 75% using automatic robotic arrayer(proteogen, CM-1000), and then subjected to RT shaking incubation for 3 hours, thus constructing Cl-chip having gold chip as a substrate.
# Inhibitors of interaction between caspase3 and xIAP were screened using the protein chip based on the gold chip prepared in example 1. 920 microorganism-derived samples, which was purely isolated or partially purified, were reacted with 15 μl solution (3.75 μl of more than 50% glycerol; 3 μl of material dissolved in DMSO at a concentration of less than 10 mg/ml; 7.5 μl of xIAP dissolved in PBS at a concentration of more than 1 mg/ml; 0.75 μl of PBS buffer) at 4° C. for 2 hours to apply to the protein chip. Inhibitory activity was analyzed using SPR imaging as the concentration of protein in solution was increased (FIG. 3).
# [5] = molecular target: T2, binding of caspase3 and xIAP (Homo sapiens, UniProt P98170); assay: pull down assay using tagged MBP; conditions: chromomycin increased from 50 μM to 200 μM; MBP resin, SDS PAGE; FIG. 4
# T2 construct: made in house; host or cells: E. coli BL21
# T2 sequence (P98170 whole entry): as above
# Protocol: In order to examine whether chromomycin, screened in the example 2, is activated by the reaction of caspase3 and xIAP, pull down assay using tagged MBP (Maltose Binding Protein) was performed. After xIAP and chromomyicin were added to MBP resin and allowed to react on ice for 2 hours, the resulting mixture was added with caspase3 and allowed to react for about 3 hours, and then washed with PBS buffer solution to load onto 10% SDS PAGE, thus examining the reactant (FIG. 4).
smiles,measurement,setting,value
COC1C(O)CC(OC2CC(Oc3cc4cc5c(c(O)c4c(O)c3C)C(=O)[C@@H](OC3CC(OC4CC(OC6CC(C)(O)C(OC(C)=O)C(C)O6)C(O)C(C)O4)C(O)C(C)O3)[C@H]([C@H](OC)C(=O)[C@@H](O)[C@@H](C)O)C5)OC(C)C2OC(C)=O)OC1C (some centres unmarked) [Chromomycin],IC50,[1],80 nM
same,IC50,[2],8.4 nM
same,IC50,[3],6.7 nM
same,inhibition reaction in the protein chip (SPR imaging),[4],constant inhibition reaction concentration-dependently
same,resulting reactant of xIAP (MX) and caspase3 (Cas3) in pull down assay,[5],reduced
